Measurements as given in patent publication US20050202511A1, “AMP-activated protein kinase (AMPK) inhibitor screening assay” (priority 2002, published 2005).
Where “and” joins values, the source holds several entries; their conditions need not be identical. Equal values may be shown once.

Tests used:
Assay in all cases: Filter binding assay, GST-CBS domain fusion
AMPK-γ2 CBS1-2 (R302Q) = target: T1, AMPK-γ2 CBS1-2 (R302Q) (Homo sapiens, UniProt Q9UGJ0, R302Q); conditions: for Kd: single-site model
T1 construct: the N-terminal pair (CBS1-2, residues 274-410); made in house; host or cells: E. coli BL21 (DE3)
T1 sequence (Q9UGJ0 274-410 R302Q): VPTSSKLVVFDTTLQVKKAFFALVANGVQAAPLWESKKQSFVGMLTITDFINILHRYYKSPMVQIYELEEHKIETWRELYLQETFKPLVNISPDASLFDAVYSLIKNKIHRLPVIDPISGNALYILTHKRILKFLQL
Text: Site-directed mutagenesis was used to create the point mutation in CBS1 that causes hereditary heart disease (R302Q).
The present inventors also used site-directed mutagenesis to create four of the mutations in CBS1-2 that cause WPWS, i.e. R302Q, H383R and T400N, and Lins (which inserts a leucine residue in the linker between CBS1 and CBS2).
(§1) Various concentrations of [^14C]-AMP, [γ^32P] […] Reactions were stopped by spotting 10 ìl onto a Millipore MF Filter Membrane disc and rapidly washing under high vacuum with 1 ml of ice-cold TBS. Radioactivity was determined on the filters by scintillation counting. Non-specific binding (which was trivial) was determined by performing the assay with GST as a control, and was subtracted. […] Data were fitted to the binding models given in the text, using GraphPad Prism 3. Estimates of parameters resulting from fits are quoted in the text and Table 1±standard error, and the curves shown in figures are theoretical curves obtained using those estimates.

AMPK-γ2 CBS3-4 (WT) = target: T2, AMPK-γ2 CBS3-4 (WT) (Homo sapiens, UniProt Q9UGJ0); conditions: single-site model
T2 construct: the C-terminal pair (CBS3-4, residues 430-556); made in house; host or cells: E. coli BL21 (DE3)
T2 sequence (Q9UGJ0 430-556): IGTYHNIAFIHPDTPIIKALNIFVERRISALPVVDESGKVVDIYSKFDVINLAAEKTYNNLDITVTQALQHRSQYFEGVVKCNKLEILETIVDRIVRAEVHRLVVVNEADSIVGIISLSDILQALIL
Text: (§2) The boundaries of the CBS domains were taken from the alignments by Bateman. Using a plasmid encoding human γ2 as the template, PCR was used to produce DNAs encoding all four CBS domains (CBS1-4, residues 274-569), the N-terminal pair (CBS1-2, residues 274-410) or the C-terminal pair (CBS3-4, residues 430-556). The PCR primers had been designed to create BamHI and XhoI sites at the ends, and these were used to insert them into a vector that created a fusion protein with glutathione-S-transferase at the N-terminal end followed by a hexaglycine spacer, with the CBS domains at the C-terminus. All three constructs were expressed in E. coli and could be purified on glutathione-Sepharose as soluble proteins of the expected sizes in good yield (CBS1-4, 61 kDa, 5 mg/L of culture; CBS1-2, 43 kDa, 2 mg/L; CBS3-4, 43 kDa, 2 mg/L).
(§3) Site-directed mutagenesis was also used to create a point mutation in CBS4 that causes hereditary heart disease (WPWS) (R531G).
Various concentrations of [^14C]-AMP, [γ^32P] […] Reactions were stopped by spotting 10 ìl onto a Millipore MF Filter Membrane disc and rapidly washing under high vacuum with 1 ml of ice-cold TBS. Radioactivity was determined on the filters by scintillation counting. Non-specific binding (which was trivial) was determined by performing the assay with GST as a control, and was subtracted. […]

AMPK-γ2 CBS3-4 (R531G) = target: T3, AMPK-γ2 CBS3-4 (R531G) (Homo sapiens, UniProt Q9UGJ0, R531G); conditions: for Kd: single-site model
T3 construct: the C-terminal pair (CBS3-4, residues 430-556); made in house; host or cells: E. coli BL21 (DE3)
T3 sequence (Q9UGJ0 430-556 R531G): as the sequence (Q9UGJ0 430-556) above, with R102G counted along it
Experimental: as §3, §1

AMPK-γ2 CBS1-4 (WT) = target: T4, AMPK-γ2 CBS1-4 (WT) (Homo sapiens, UniProt Q9UGJ0); conditions: for Kd: two site Hill plot model, read-out: B0.5 (concentration giving half-maximal binding)
T4 construct: all four CBS domains (CBS1-4, residues 274-569); made in house; host or cells: E. coli BL21 (DE3)
T4 sequence (Q9UGJ0 274-569): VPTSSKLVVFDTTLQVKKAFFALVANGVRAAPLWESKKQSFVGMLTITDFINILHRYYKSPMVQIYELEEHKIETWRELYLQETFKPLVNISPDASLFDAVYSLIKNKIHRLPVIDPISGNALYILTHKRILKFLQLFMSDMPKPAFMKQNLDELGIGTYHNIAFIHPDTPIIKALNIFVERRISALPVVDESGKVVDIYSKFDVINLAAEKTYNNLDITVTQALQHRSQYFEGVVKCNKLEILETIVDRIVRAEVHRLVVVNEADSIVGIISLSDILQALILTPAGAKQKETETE
Text: as §2
(§4) With the H383R, T400N and R531G mutants there were large increases in B0.5 (6-, 8- and 10-fold) with no significant change in Hill coefficient.
as §1

AMPK-γ2 CBS1-4 (H383R) = target: T5, AMPK-γ2 CBS1-4 (H383R) (Homo sapiens, UniProt Q9UGJ0, H383R); conditions: for Kd: two site Hill plot model, read-out: B0.5
T5 construct: all four CBS domains (CBS1-4, residues 274-569); made in house; host or cells: E. coli BL21 (DE3)
T5 sequence (Q9UGJ0 274-569 H383R): as the sequence (Q9UGJ0 274-569) above, with H110R counted along it
Experimental: as §4, §1

AMPK-γ2 CBS1-4 (Lins) = target: T6, AMPK-γ2 CBS1-4 (Lins) (Homo sapiens, UniProt Q9UGJ0, INS350L); conditions: for Kd: two site Hill plot model, read-out: B0.5
T6 construct: fused on or other part: GST at the N-terminus followed by a hexaglycine spacer (pGEX-KG)
T6 sequence (Q9UGJ0 with tags, fused parts or gaps INS350L): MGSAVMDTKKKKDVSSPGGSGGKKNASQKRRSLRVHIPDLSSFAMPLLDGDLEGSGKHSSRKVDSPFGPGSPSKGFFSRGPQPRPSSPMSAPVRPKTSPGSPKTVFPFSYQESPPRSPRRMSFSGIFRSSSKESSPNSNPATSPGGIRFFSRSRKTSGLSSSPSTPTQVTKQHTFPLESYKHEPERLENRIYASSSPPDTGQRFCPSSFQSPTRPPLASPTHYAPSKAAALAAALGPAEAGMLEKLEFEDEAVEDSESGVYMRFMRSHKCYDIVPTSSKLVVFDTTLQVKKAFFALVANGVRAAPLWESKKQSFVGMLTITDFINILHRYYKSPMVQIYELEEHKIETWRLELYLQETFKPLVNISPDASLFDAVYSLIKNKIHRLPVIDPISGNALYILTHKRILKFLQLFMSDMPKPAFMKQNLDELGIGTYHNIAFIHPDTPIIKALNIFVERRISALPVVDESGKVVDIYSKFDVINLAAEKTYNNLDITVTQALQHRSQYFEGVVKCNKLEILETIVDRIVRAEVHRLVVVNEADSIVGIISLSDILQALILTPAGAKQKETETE
Experimental: as §4, §1

AMPK-γ2 CBS1-4 (R302Q) = target: T7, AMPK-γ2 CBS1-4 (R302Q) (Homo sapiens, UniProt Q9UGJ0, R302Q); conditions: for Kd: two site Hill plot model, read-out: B0.5
T7 construct: all four CBS domains (CBS1-4, residues 274-569); made in house; host or cells: E. coli BL21 (DE3)
T7 sequence (Q9UGJ0 274-569 R302Q): as the sequence (Q9UGJ0 274-569) above, with R29Q counted along it
Experimental: as §4, §1

AMPK-γ2 CBS1-4 (R531G) = target: T8, AMPK-γ2 CBS1-4 (R531G) (Homo sapiens, UniProt Q9UGJ0, R531G); conditions: for Kd: two site Hill plot model, read-out: B0.5
T8 construct: all four CBS domains (CBS1-4, residues 274-569); made in house; host or cells: E. coli BL21 (DE3)
T8 sequence (Q9UGJ0 274-569 R531G): as the sequence (Q9UGJ0 274-569) above, with R258G counted along it
Experimental: as §4, §1

AMPK-γ2 CBS1-4 (T400N) = target: T9, AMPK-γ2 CBS1-4 (T400N) (Homo sapiens, UniProt Q9UGJ0, T400N); conditions: for Kd: two site Hill plot model, read-out: B0.5
T9 construct: all four CBS domains (CBS1-4, residues 274-569); made in house; host or cells: E. coli BL21 (DE3)
T9 sequence (Q9UGJ0 274-569 T400N): as the sequence (Q9UGJ0 274-569) above, with T127N counted along it
Experimental: as §4, §1

AMPK-γ3 CBS1-4 = target: T10, AMPK-γ3 CBS1-4 (Homo sapiens, UniProt Q9UGI9); conditions: for Kd: two site Hill plot model, read-out: B0.5
T10 construct: Human γ3 (residues 197-479) was also used as a template for PCR; made in house; host or cells: E. coli BL21 (DE3)
T10 sequence (Q9UGI9 197-479): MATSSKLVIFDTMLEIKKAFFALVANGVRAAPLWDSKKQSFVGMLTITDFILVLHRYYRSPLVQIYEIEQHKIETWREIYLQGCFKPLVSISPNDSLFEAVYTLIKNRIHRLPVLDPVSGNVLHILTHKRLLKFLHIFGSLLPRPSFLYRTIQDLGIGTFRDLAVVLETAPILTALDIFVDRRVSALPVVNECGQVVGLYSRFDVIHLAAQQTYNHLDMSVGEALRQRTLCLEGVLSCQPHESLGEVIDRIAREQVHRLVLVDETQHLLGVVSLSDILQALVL
Text: DNA fragments were produced encoding all four (CBS1-4), or the first two (CBS1-2), or the last two (CBS3-4) of the tandem CBS domains from the human AMPK γ2 subunit. DNAs were produced by the polymerase chain reaction (PCR) using the Stratagene Pfu Turbo PCR kit and a human γ2-encoding pcDNA3 plasmid as template. The following oligonucleotides were used as primers: (CBS1-4), 5′-CGCGGATCCGCGGTTCCAACCAGTTCAAAGCTTGTT-3′ (sense), 5′-CCGCTCGAGCGGCTCCGTTTCTGTCTCCTTTTGTTT-3′ (antisense); CBS1-2 (sense strand as CBS1-4), 5′-CCGCTCGAGCGGAAGCTGGAGGAACTTGAGGATTCT-3′ (antisense); CBS3-4: 5′-CGCGGATCCGCGATAGGAACGTACCACAACATTGCC-3′ (sense), 5′-CCGCTCGAGCGGGAGGATCAGGGCTTGCAGAATGTC-3′ (antisense). Human γ3 (residues 197-479) was also used as a template for PCR (14). The PCR products were subcloned into pGEX-KG as 5′-BamHI and 3′-XhoI restriction fragments for expression as glutathione-S-Transferase (GST) fusions in E. coli.
as §1

| Structure (SMILES) | Kd (AMPK-γ2 CBS1-2 (R302Q)) [µM] | Kd (AMPK-γ2 CBS3-4 (WT)) [µM] | Kd (AMPK-γ2 CBS3-4 (R531G)) [µM] | h (Hill coefficient) (AMPK-γ2 CBS1-4 (WT)) | Kd (AMPK-γ2 CBS1-4 (WT)) [µM] | h (Hill coefficient) (AMPK-γ2 CBS1-4 (H383R)) | Kd (AMPK-γ2 CBS1-4 (H383R)) [µM] | h (Hill coefficient) (AMPK-γ2 CBS1-4 (Lins)) | Kd (AMPK-γ2 CBS1-4 (Lins)) [µM] | h (Hill coefficient) (AMPK-γ2 CBS1-4 (R302Q)) | Kd (AMPK-γ2 CBS1-4 (R302Q)) [µM] | h (Hill coefficient) (AMPK-γ2 CBS1-4 (R531G)) | Kd (AMPK-γ2 CBS1-4 (R531G)) [µM] | h (Hill coefficient) (AMPK-γ2 CBS1-4 (T400N)) | Kd (AMPK-γ2 CBS1-4 (T400N)) [µM] | h (Hill coefficient) (AMPK-γ3 CBS1-4) | Kd (AMPK-γ3 CBS1-4) [µM] | also measured |
| --- | --- | --- | --- | --- | --- | --- | --- | --- | --- | --- | --- | --- | --- | --- | --- | --- | --- | --- |
| Nc1ncnc2c1ncn2[C@@H]1O[C@H](COP(=O)(O)O)[C@@H](O)[C@H]1O [AMP, adenosine monophosphate] | 303 ± 42 | 104 ± 10 | 1570 ± 110 | 2.2 ± 0.1 | 61 | 1.8 ± 0.2 | 725 ± 36 | 1.8 ± 0.1 | 130 ± 4 | 1.9 ± 0.2 | 158 ± 9 | 1.6 ± 0.2 | 2800 ± 220 | 1.8 ± 0.1 | 1360 ± 47 | 2.2 ± 0.1 | 125 | increase in Kd relative to wild type (AMPK-γ2 CBS1-2 (R302Q)): 5.7 fold and 6 fold; increase in Kd relative to wild type (AMPK-γ2 CBS3-4 (R531G)): 15 fold; increase in B0.5 relative to wild type (AMPK-γ2 CBS1-4 (H383R)): 12 fold; change in B0.5 relative to wild type (AMPK-γ2 CBS1-4 (R302Q)): 2.6 fold; increase in B0.5 relative to wild type (AMPK-γ2 CBS1-4 (R531G)): 46 fold; increase in B0.5 relative to wild type (AMPK-γ2 CBS1-4 (T400N)): 22 fold |
| Nc1ncnc2c1ncn2[C@@H]1O[C@H](COP(=O)(O)OP(=O)(O)OP(=O)(O)O)[C@@H](O)[C@H]1O [ATP] | 468 ± 86 | 403 ± 16 | 2050 ± 150 | 2.2 and 2.2 ± 0.2 | 257 ± 14 | 2.4 ± 0.2 | 1470 ± 55 | 1.8 ± 0.2 | 335 ± 28 | 1.3 and 1.3 ± 0.2 | 193 ± 25 | 2.7 ± 0.5 | 2550 ± 230 | 1.7 ± 0.2 | 2000 ± 160 | 1.5 ± 0.1 | 989 ± 58 |  |
